Assay results reported in patent US20080317780A1, “VIRAL VACCINE AND METHOD FOR PREPARATION THEREOF” (NATIONAL RESEARCH COUNCIL OF CANADA, priority 2006, published 2008).

System: zinc finger protein metallothionein (MT)
Experiment: Zinc-finger disruption assay (zinc release from metallothionein, PAR absorbance at 500 nm)
Format: biochemical
Method: Biochem. Biophys. 287:175-179, 1991; and Fliss, H.; Ménard, M., “Oxidant-induced mobilization of zinc from metallothionein” Arch. Biochem. Biophys. 293:195-199, 1991. Briefly, the assay is conducted as follows. The assay is performed in a cuvet containing the zinc finger protein metallothionein (MT), and the metallochromic indicator 4-(2-pyridylazo)resorcinol (PAR).

## OCl [hypochlorous acid]
100 μmol/L
  release of zinc in the zinc-finger assay (PAR absorbance): rapid

## NCl [monochloramine]
25 μmol/L
  zinc-finger disruption (PAR absorbance): increase in PAR absorbance

## N[C@@H](Cc1ccccc1)C(=O)O [phenylalanine]
500 μmol/L
  release of zinc in the zinc-finger assay (PAR absorbance): negligible
